For assay [1], the system named is islets from both β3−/− and wild type mice. In words: carbamylcholine-induced activation of PLC, [Ca2+]i in islets. It is filed as cell-based, mouse. The procedure: (§1) The whole-cell configuration of the patch-clamp technique was performed as follows: pipettes were pulled from borosilicate glass, coated with Sylgard near the tips and fire-polished. The pipettes ([…]) were filled with a solution containing 150 mM N-methyl-D-glucamine, 125 mM HCl, 1.2 mM MgCl2, 10 mM EGTA, 5 mM HEPES and 3 mM MgATP. pH was adjusted to 7.15 with KOH. Bath buffer contained (in mM) NaCl 138, KCl 5.6, MgCl2 1.2, CaCl2 10, HEPES 5 and pH 7.4. Islets or isolated cells were loaded with 2 μM fura 2/AM for 30 min in KRBB. For measurements of CCh (carbamylcholine) effects in Ca^2+-free medium, KRBB containing no Ca^2+ and 100 μM EGTA was used. After loading, a single islet or cells attached to a coverslip were transferred to an open perfusion chamber and maintained at 37° C. Measurements of 340/380 nm fluorescence ratio, reflecting [Ca^2+]i, were done as described in the art (Zaitsev, S. V. et al. 1995, Proc. Natl. Acad. Sci. USA 92:9712-9716). Time constant of decay in [Ca^2+]i was calculated with a double exponential decay equation using quasi Newton algorithm (Statistica for Windows, v. 5.0, StatSoft, Inc., USA). For measurements of [Ca^2+]ER, the low affinity Ca^2+-sensitive fluorescent dye X-Rhod-5N (Molecular Probes) was employed. […] were incubated with 5 μM X-Rhod-5N/AM for 1 hour at 4° C. to ensure dye loading into intracellular compartments. […]

For assay [2], the system named is islets from both wild type and β3−/− mice. Put plainly: glucose-induced [Ca2+]i oscillations in islets/β-cells (fura-2 340/380 nm fluorescence ratio). The class given is cell-based, mouse.
Source text: Changes in [Ca^2+]i were next evaluated. […] The changes in [Ca^2+]i subsequent to the initial increase were categorized into three groups: slow oscillations (period of approximately 160 seconds), fast oscillations (period of approximately 10 seconds) and no oscillations. In wild type mice, 43 recordings (43 islets) were made.
Assay [3] concerns islets from control and β3−/− mice. In words: insulin release in response to glucose from isolated islets. It is filed as cell-based, mouse. The following applies: islets treated with thapsigargin. The procedure: Islets of Langerhans were isolated by collagenase digestion and maintained overnight in RPMI 1640 culture medium (Flow Laboratories, UK). Single cells, obtained by shaking the islets in Ca^2+-free medium, were seeded into plastic dishes. For measurements of insulin release, islets were pre-incubated in Krebs-Ringer bicarbonate buffer (KRBB) for 30 min at 37° C. Groups of 3 islets were transferred to tubes containing 0.3 ml KRBB with test substances and incubated for another 30 min at 37° C. The incubation was terminated by cooling the samples on ice. Samples were stored at −20° C. until insulin was analyzed.
To further verify this notion, changes in [Ca^2+]i and insulin exocytosis were measured simultaneously, applying a depolarizing pulse protocol mimicking an oscillatory versus a monophasic increase in [Ca^2+]i.

Assay [4] concerns islets from both wild type and β3−/− mice. The following applies: treatment of β-cells; Roe et al. 1998; cited from earlier work.
Assay [5] has as its system islets from β3−/− mice compared to wild type mice. Put plainly: increase in [Ca2+]i on addition of 2.5 mM extracellular Ca2+ after depletion of the Ca2+-pool. Particulars: 2 μM; Ca2+-pool depleted. The class given is cell-based, mouse. The procedure:
as §1

The text below walks through data of US8021853B2, “Inhibition of the β3 subunit of L-type Ca2+ channels” (priority 2002, dated 2011).

As for `C[N+](C)(C)CCOC(N)=O.[Cl-]` [Carbamylcholine, carbamylcholine], the “effect on [Ca2+]i” value in assay [1] was “produced a transient increase in [Ca^2+]i”.

Turning to `NCCOB(c1ccccc1)c1ccccc1` [2-APB, 2-aminoethoxydiphenyl borane], the “effect on [Ca2+]i oscillations (blocking the InsP3-receptor)” value in assay [2] (β-cells from β3−/− mice) is “transformed [Ca^2+]i oscillations from fast into slow”. For `C/C=C(/C)C(=O)O[C@H]1C(C)=C2[C@H]([C@@H]1OC(=O)CCCCCCC)[C@@](C)(OC(C)=O)C[C@H](OC(=O)CCC)[C@@]1(O)[C@H]2OC(=O)[C@@]1(C)O` [thapsigargin], the “effect on glucose-induced oscillations in [Ca2+]i” value in assay [2] (1 μM, 30 min preincubation, islets from both wild type and β3−/− mice) was “prevented glucose-induced oscillations in [Ca^2+]i”. Also, in assay [3], the “insulin release in response to glucose, control versus β3−/− mice” value was “no different”. Besides, in assay [4], the “effect on [Ca2+]i oscillations” value is “transform [Ca^2+]i oscillations into a monophasic elevation in [Ca^2+]i”.

Consider `[Gd]` [gadolinium], for which the “effect on the increase in [Ca2+]i after addition of 2.5 mM extracellular Ca2+” value in assay [5] is “did not affect”.
